Source: the NIST ThermoML archive (doi:10.1021/acs.jced.5b00612)

Conditions: Liquid

CCCCCCCCCCCCCC(=O)OCC [ethyl tetradecanoate]
viscosity [mPa·s]
Conditions	293.15 K	313.15 K	333.15 K	353.15 K
101.3 kPa, Falling or rolling sphere viscometry	4.73	2.96	2.03	1.48
101.3 kPa, quartz crystal resonator	4.73	2.96	2.03	1.48
10000 kPa, quartz crystal resonator	5.36	3.34	2.3	1.65
20000 kPa, Falling or rolling sphere viscometry	6.1	3.74	2.53	1.83
20000 kPa, quartz crystal resonator	6.08	3.71	2.54	1.84
30000 kPa, quartz crystal resonator	6.83	4.15	2.82	2.03
40000 kPa, Falling or rolling sphere viscometry	7.68	4.64	3.09	2.22
40000 kPa, quartz crystal resonator	7.68	4.63	3.13	2.24
50000 kPa, quartz crystal resonator	–	5.1	3.44	2.44
60000 kPa, Falling or rolling sphere viscometry	–	5.67	3.73	2.66
60000 kPa, quartz crystal resonator	–	5.67	3.76	2.66
70000 kPa, quartz crystal resonator	–	6.22	4.08	2.91
80000 kPa, Falling or rolling sphere viscometry	–	6.86	4.46	3.16
80000 kPa, quartz crystal resonator	–	6.89	4.48	3.14
90000 kPa, quartz crystal resonator	–	7.56	4.86	3.41
100000 kPa, Falling or rolling sphere viscometry	–	8.23	5.27	3.71
100000 kPa, quartz crystal resonator	–	8.14	5.25	3.66

CCCCCCCCCCCCCC(=O)OC [methyl tetradecanoate]
viscosity [mPa·s]
Conditions	303.15 K	313.15 K	333.15 K	353.15 K
101.3 kPa, Falling or rolling sphere viscometry	3.51	2.8	1.91	1.4
101.3 kPa, quartz crystal resonator	3.51	2.8	1.91	1.4
10000 kPa, quartz crystal resonator	3.95	3.15	2.14	1.57
20000 kPa, Falling or rolling sphere viscometry	4.43	3.5	2.37	1.72
20000 kPa, quartz crystal resonator	4.45	3.5	2.37	1.74
30000 kPa, quartz crystal resonator	4.95	3.91	2.61	1.92
40000 kPa, Falling or rolling sphere viscometry	5.51	4.31	2.89	2.08
40000 kPa, quartz crystal resonator	5.53	4.33	2.88	2.11
50000 kPa, quartz crystal resonator	6.11	4.79	3.16	2.29
60000 kPa, Falling or rolling sphere viscometry	–	5.24	3.47	2.47
60000 kPa, quartz crystal resonator	6.79	5.26	3.46	2.5
70000 kPa, quartz crystal resonator	–	5.74	3.76	2.71
80000 kPa, Falling or rolling sphere viscometry	–	6.31	4.11	2.9
80000 kPa, quartz crystal resonator	–	6.29	4.08	2.92
90000 kPa, quartz crystal resonator	–	–	4.46	3.14
100000 kPa, Falling or rolling sphere viscometry	–	7.54	4.82	3.38
100000 kPa, quartz crystal resonator	–	–	4.81	3.4
